Tests used:
Test in all cases: relative viability (nuclei count vs DMSO), 5 days (fraction); higher = more cells survive
[1] = compound: CCOc1cc2ncc(C#N)c(Nc3ccc(OCc4ccccn4)c(Cl)c3)c2cc1NC(=O)/C=C/CN(C)C [Neratinib] + COc1cccc2cc(-c3nc([C@H]4CC[C@H](C(=O)O)CC4)n4ncnc(N)c34)[nH]c12 [OSI-027] (partner 0.5 µM)
Method in brief: (§1)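 Nuclei were stained with Hoechst during a one-step fixation (final 0.05% Triton X-100, 1% formaldehyde, 1 ug/ml Hoechst) carried out 5 days after dosing, then counted on 4× images. The cells, lung cancer lines in 1536-well plates, had been dosed by pin tool the day after seeding with one drug alone or a fixed anchor-drug dose plus five library-drug doses (not always all listed) in √10 steps. Relative viability is the nuclei count in treated wells divided by that in vehicle wells, and each value is the median of duplicate plates.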

[2] = compound: CCOc1cc2ncc(C#N)c(Nc3ccc(OCc4ccccn4)c(Cl)c3)c2cc1NC(=O)/C=C/CN(C)C [Neratinib] + CS(=O)(=O)N1CCN(Cc2cc3nc(-c4cccc5[nH]ncc45)nc(N4CCOCC4)c3s2)CC1 [Pictilisib] (partner 1 µM)
Method in brief: as §1

[3] = compound: CCOc1cc2ncc(C#N)c(Nc3ccc(OCc4ccccn4)c(Cl)c3)c2cc1NC(=O)/C=C/CN(C)C [Neratinib] + CCNC(=O)c1noc(-c2cc(C(C)C)c(O)cc2O)c1-c1ccc(CN2CCOCC2)cc1 [Luminespib] (partner 0.01 µM)
Method in brief: as §1

[4] = compound: CCOc1cc2ncc(C#N)c(Nc3ccc(OCc4ccccn4)c(Cl)c3)c2cc1NC(=O)/C=C/CN(C)C [Neratinib] + CC(=O)c1c(C)c2cnc(Nc3ccc(N4CCNCC4)cn3)nc2n(C2CCCC2)c1=O [Palbociclib] (partner 0.5 µM)
Method in brief: as §1

Row | Cell Line | relative viability ([1]; first compound 0.01 µM) | relative viability ([1]; first compound 0.03162 µM) | relative viability ([1]; first compound 0.1 µM) | relative viability ([1]; first compound 0.3162 µM) | relative viability ([1]; first compound 1 µM) | relative viability ([2]; first compound 0.01 µM) | relative viability ([2]; first compound 0.03162 µM) | relative viability ([2]; first compound 0.1 µM) | relative viability ([2]; first compound 0.3162 µM) | relative viability ([2]; first compound 1 µM) | relative viability ([3]; first compound 0.01 µM) | relative viability ([3]; first compound 0.03162 µM) | relative viability ([3]; first compound 0.1 µM) | relative viability ([3]; first compound 0.3162 µM) | relative viability ([3]; first compound 1 µM) | relative viability ([4]; first compound 0.01 µM) | relative viability ([4]; first compound 0.03162 µM) | relative viability ([4]; first compound 0.1 µM) | relative viability ([4]; first compound 0.3162 µM) | relative viability ([4]; first compound 1 µM)
1 | NCI-H2170 | 0.761 | 0.771 | 0.287 | 0.22 | 0.239 | 0.314 | 0.253 | 0.206 | 0.189 | 0.256 | 0.727 | 0.637 | 0.365 | 0.271 | 0.304 | 0.361 | 0.352 | 0.199 | 0.144 | 0.151
2 | EMC-BAC-2 | 0.36 | 0.456 | 0.344 | 0.361 | 0.291 | 0.584 | 0.558 | 0.443 | 0.468 | 0.371 | 1.38 | 1.17 | 1.08 | 0.976 | 0.597 | 0.538 | 0.526 | 0.492 | 0.532 | 0.41
3 | NCI-H2347 | 0.453 | 0.573 | – | 0.434 | 0.32 | 0.603 | 0.547 | 0.503 | 0.582 | 0.524 | 0.472 | 0.385 | – | 0.483 | 0.289 | 0.401 | 0.41 | 0.341 | 0.494 | 0.479
4 | UMC-11 | 0.487 | 0.487 | 0.415 | 0.414 | 0.308 | 0.776 | 1.06 | 0.566 | 0.746 | 0.701 | 1.15 | 1.1 | 0.964 | 0.903 | 0.763 | 0.321 | 0.327 | 0.319 | 0.335 | 0.243
5 | NCI-H358 | 0.65 | 0.514 | 0.275 | 0.117 | 0.107 | 0.302 | 0.336 | 0.231 | 0.295 | 0.228 | 0.301 | 0.518 | 0.279 | 0.108 | 0.12 | 0.143 | 0.112 | 0.125 | 0.12 | 0.129
6 | LC-2-ad | 0.831 | 0.877 | 0.749 | 0.518 | 0.383 | 0.525 | 0.485 | 0.0712 | 0.249 | 0.162 | 1.11 | 1.1 | 1.04 | 0.87 | 0.465 | 0.487 | 0.507 | 0.41 | 0.442 | 0.499
7 | HCC-15 | 0.707 | 0.794 | 0.6 | 0.559 | 0.511 | 0.824 | 0.809 | 0.712 | 0.781 | 0.618 | 0.347 | 0.377 | 0.274 | 0.339 | 0.161 | 0.764 | 0.828 | 0.738 | 0.692 | 0.511
8 | NCI-H3122 | 1.03 | 0.987 | 0.9 | 0.9 | 0.154 | 0.634 | 0.589 | 0.474 | 0.619 | 0.214 | 0.103 | 0.0884 | 0.119 | 0.102 | 0.11 | 0.205 | 0.208 | 0.188 | 0.181 | 0.148
9 | LXF-289 | 0.876 | 0.875 | 0.777 | 0.759 | 0.542 | 0.785 | 0.821 | – | 0.759 | 0.418 | 0.726 | 0.805 | – | 0.695 | 0.453 | 0.633 | 0.631 | 0.554 | – | 0.58
10 | CAL-12T | 0.614 | 0.719 | 0.345 | 0.237 | 0.197 | 0.491 | 0.548 | 0.362 | 0.396 | 0.218 | 0.445 | 0.393 | 0.291 | 0.104 | 0.123 | 0.41 | 0.478 | 0.179 | 0.118 | 0.184
11 | COR-L23 | 0.863 | 0.862 | 0.753 | 0.68 | 0.285 | – | – | 0.739 | 0.644 | 0.257 | – | 0.621 | 0.598 | 0.606 | 0.257 | 0.328 | 0.333 | 0.275 | 0.255 | 0.216
12 | NCI-H1755 | 0.795 | 0.785 | 0.721 | 0.695 | 0.528 | 0.475 | 0.455 | 0.407 | 0.36 | 0.209 | 0.544 | 0.488 | 0.444 | 0.419 | 0.488 | 0.457 | 0.463 | 0.33 | 0.456 | 0.432
13 | NCI-H1437 | 0.851 | 0.886 | 0.812 | 0.763 | 0.759 | 0.474 | 0.553 | 0.356 | 0.325 | 0.343 | 1.21 | 1.08 | 1 | 1.11 | 1.09 | 0.322 | 0.329 | 0.293 | 0.268 | 0.341
14 | NCI-H2087 | – | 0.634 | 0.471 | 0.335 | 0.267 | 0.989 | 0.899 | – | 0.799 | 0.492 | 0.16 | 0.172 | 0.151 | 0.14 | 0.148 | 0.212 | 0.271 | 0.217 | 0.182 | 0.14
15 | H3255 | 0.559 | 0.571 | 0.436 | 0.212 | 0.215 | 0.453 | 0.469 | 0.301 | 0.117 | 0.109 | 0.949 | 0.765 | 0.669 | 0.387 | 0.211 | 0.304 | 0.324 | 0.305 | 0.256 | 0.201
16 | NCI-H838 | 0.463 | 0.492 | 0.419 | 0.325 | 0.226 | 0.466 | 0.54 | 0.473 | 0.375 | 0.25 | 0.252 | 0.269 | 0.258 | 0.22 | 0.21 | 0.223 | 0.23 | 0.216 | 0.176 | 0.176
